# What was measured:
# Type in all cases: physicochemical
# [1] = Water solubility measurement of micronized Pterostilbene; settings: thermodynamic from solid
# Protocol: 1.00 kg of Pterostilbene (98% purity, Organic Herb, China) 50 µm of crystalline particles as model substance were subjected to micronization from present invention with additional maintaining of low temperature (20 °C) of substance via slow liquid nitrogen stream flow addition through neck feeder. In this preparation discs with blades in the shape of cubes and extruded triangles were used (Figure 7) , according to the present invention.
# Such prepared samples of micronized Pterostilbene were subjected to particles size analyses and water solubility measurement.
# [2] = Particle size analysis (Malvern MasterSizer 2000) of micronized samples; settings: ursolic acid
# Excerpt: The influence of the shape of the blades on the efficiency of the micronization has been studied by the use of the micronization device shown in Figures 1 and 2 from the prior art of the following technical characteristics: • (i) diameter of discs (Ø) of micronizer was 370 mm; • (ii) number of layers of hitting elements (blades) on the discs was 3 on primary and 2 on secondary disc; • (iii) number of blades on each of wreaths of discs was 20/16 (outer/inner wreath) from one side; and 18/16 (outer/inner wreath) from the other side of the micronizer; • (iv) the rotation velocity was 10000 rpm;
# 1 kg of each sample of same zeolite clinoptilolite was micronized by using the device according to the prior art and three different hitting elements as depicted in figures 5, 6 and 8. The disintegrators are characterized by the following data: • 1. Plates formed according to US4406409 A (Figure 5; Micronization-1); • 2. Slightly curved and indented plates according to HR990263 A2 (Figure 6; Micronizationt-2); and • 3. The hitting elements according to the present invention (Figure 8; Micronization-3) […]
# (§1) 1 kg of each sample of ursolic acid (98% purity, Sigma Aldrich) of an average particle size of 30 µm was micronized five times in devices having different hitting elements. The discs were cooled through a feeder opening with liquid nitrogen spraying to avoid overheating of the heat-sensitive substance.
# The micronized samples were analyzed for particle size (Malvern MasterSizer 2000), while the extent of crystalline disorder of particles was quantified with isothermal calorimetry (IC TAM 3, TA instruments, USA). Data was recorded with proprietary software Digitam 4.2. […]
# [3] = Amorphous content / crystalline disorder by isothermal calorimetry (IC TAM 3); settings: ursolic acid
# Protocol: as §1
# The micronized samples were analyzed for particle size (Malvern MasterSizer 2000), while the extent of crystalline disorder of particles was quantified with isothermal calorimetry (IC TAM 3, TA instruments, USA). Data was recorded with proprietary software Digitam 4.2.
smiles,measurement,setting,value
COc1cc(/C=C/c2ccc(O)cc2)cc(OC)c1 [Pterostilbene],solubility,"[1]; after seven repeated processes of micronization, blades of present invention (Figure 7)",128 µg/mL
same,solubility,[1]; before micronization,23 µg/mL
C[C@H]1[C@H](C)CC[C@]2(C(=O)O)CC[C@]3(C)C(=CC[C@@H]4[C@@]5(C)CC[C@H](O)C(C)(C)[C@@H]5CC[C@]43C)[C@H]12 [ursolic acid],Volume (%) under,"[2]; Particles size 0.105 µm, MICRONIZATION-1, five repeated micronization procedures",0.00%
same,Volume (%) under,"[2]; Particles size 0.105 µm, MICRONIZATION-2, five repeated micronization procedures",0.00%
same,Volume (%) under,"[2]; Particles size 0.105 µm, MICRONIZATION-3, five repeated micronization procedures",0.00%
same,Volume (%) under,"[2]; Particles size 0.120 µm, MICRONIZATION-1, five repeated micronization procedures",0.00%
same,Volume (%) under,"[2]; Particles size 0.120 µm, MICRONIZATION-2, five repeated micronization procedures",0.00%
same,Volume (%) under,"[2]; Particles size 0.120 µm, MICRONIZATION-3, five repeated micronization procedures",0.00%
same,Volume (%) under,"[2]; Particles size 0.138 µm, MICRONIZATION-1, five repeated micronization procedures",0.00%
same,Volume (%) under,"[2]; Particles size 0.138 µm, MICRONIZATION-2, five repeated micronization procedures",0.00%
same,Volume (%) under,"[2]; Particles size 0.138 µm, MICRONIZATION-3, five repeated micronization procedures",0.00%
same,Volume (%) under,"[2]; Particles size 0.158 µm, MICRONIZATION-1, five repeated micronization procedures",0.00%
same,Volume (%) under,"[2]; Particles size 0.158 µm, MICRONIZATION-2, five repeated micronization procedures",0.00%
same,Volume (%) under,"[2]; Particles size 0.158 µm, MICRONIZATION-3, five repeated micronization procedures",0.28%
same,Volume (%) under,"[2]; Particles size 0.182 µm, MICRONIZATION-1, five repeated micronization procedures",0.00%
same,Volume (%) under,"[2]; Particles size 0.182 µm, MICRONIZATION-2, five repeated micronization procedures",0.00%
same,Volume (%) under,"[2]; Particles size 0.182 µm, MICRONIZATION-3, five repeated micronization procedures",1.38%
same,Volume (%) under,"[2]; Particles size 0.209 µm, MICRONIZATION-1, five repeated micronization procedures",0.00%
same,Volume (%) under,"[2]; Particles size 0.209 µm, MICRONIZATION-2, five repeated micronization procedures",0.12%
same,Volume (%) under,"[2]; Particles size 0.209 µm, MICRONIZATION-3, five repeated micronization procedures",2.73%
same,Volume (%) under,"[2]; Particles size 0.240 µm, MICRONIZATION-1, five repeated micronization procedures",0.00%
same,Volume (%) under,"[2]; Particles size 0.240 µm, MICRONIZATION-2, five repeated micronization procedures",0.46%
same,Volume (%) under,"[2]; Particles size 0.240 µm, MICRONIZATION-3, five repeated micronization procedures",3.69%
same,Volume (%) under,"[2]; Particles size 0.275 µm, MICRONIZATION-1, five repeated micronization procedures",0.01%
same,Volume (%) under,"[2]; Particles size 0.275 µm, MICRONIZATION-2, five repeated micronization procedures",1.19%
same,Volume (%) under,"[2]; Particles size 0.275 µm, MICRONIZATION-3, five repeated micronization procedures",5.39%
same,Volume (%) under,"[2]; Particles size 0.316 µm, MICRONIZATION-1, five repeated micronization procedures",0.06%
same,Volume (%) under,"[2]; Particles size 0.316 µm, MICRONIZATION-2, five repeated micronization procedures",1.97%
same,Volume (%) under,"[2]; Particles size 0.316 µm, MICRONIZATION-3, five repeated micronization procedures",8.42%
same,Volume (%) under,"[2]; Particles size 0.363 µm, MICRONIZATION-1, five repeated micronization procedures",0.23%
same,Volume (%) under,"[2]; Particles size 0.363 µm, MICRONIZATION-2, five repeated micronization procedures",2.83%
same,Volume (%) under,"[2]; Particles size 0.363 µm, MICRONIZATION-3, five repeated micronization procedures",11.76%
same,Volume (%) under,"[2]; Particles size 0.417 µm, MICRONIZATION-1, five repeated micronization procedures",0.50%
same,Volume (%) under,"[2]; Particles size 0.417 µm, MICRONIZATION-2, five repeated micronization procedures",4.09%
same,Volume (%) under,"[2]; Particles size 0.417 µm, MICRONIZATION-3, five repeated micronization procedures",14.01%
same,Volume (%) under,"[2]; Particles size 0.479 µm, MICRONIZATION-1, five repeated micronization procedures",0.87%
same,Volume (%) under,"[2]; Particles size 0.479 µm, MICRONIZATION-2, five repeated micronization procedures",5.36%
same,Volume (%) under,"[2]; Particles size 0.479 µm, MICRONIZATION-3, five repeated micronization procedures",19.32%
same,Volume (%) under,"[2]; Particles size 0.550 µm, MICRONIZATION-1, five repeated micronization procedures",1.12%
same,Volume (%) under,"[2]; Particles size 0.550 µm, MICRONIZATION-2, five repeated micronization procedures",7.01%
same,Volume (%) under,"[2]; Particles size 0.550 µm, MICRONIZATION-3, five repeated micronization procedures",25.19%
same,Volume (%) under,"[2]; Particles size 0.631 µm, MICRONIZATION-1, five repeated micronization procedures",2.02%
same,Volume (%) under,"[2]; Particles size 0.631 µm, MICRONIZATION-2, five repeated micronization procedures",9.13%
same,Volume (%) under,"[2]; Particles size 0.631 µm, MICRONIZATION-3, five repeated micronization procedures",31.12%
same,Volume (%) under,"[2]; Particles size 0.724 µm, MICRONIZATION-1, five repeated micronization procedures",3.29%
same,Volume (%) under,"[2]; Particles size 0.724 µm, MICRONIZATION-2, five repeated micronization procedures",11.51%
same,Volume (%) under,"[2]; Particles size 0.724 µm, MICRONIZATION-3, five repeated micronization procedures",36.14%
same,Volume (%) under,"[2]; Particles size 0.832 µm, MICRONIZATION-1, five repeated micronization procedures",4.78%
same,Volume (%) under,"[2]; Particles size 0.832 µm, MICRONIZATION-2, five repeated micronization procedures",13.61%
same,Volume (%) under,"[2]; Particles size 0.832 µm, MICRONIZATION-3, five repeated micronization procedures",42.72%
same,Volume (%) under,"[2]; Particles size 0.955 µm, MICRONIZATION-1, five repeated micronization procedures",6.12%
same,Volume (%) under,"[2]; Particles size 0.955 µm, MICRONIZATION-2, five repeated micronization procedures",16.29%
same,Volume (%) under,"[2]; Particles size 0.955 µm, MICRONIZATION-3, five repeated micronization procedures",50.02%
same,Volume (%) under,"[2]; Particles size 1.096 µm, MICRONIZATION-1, five repeated micronization procedures",8.44%
same,Volume (%) under,"[2]; Particles size 1.096 µm, MICRONIZATION-2, five repeated micronization procedures",19.17%
same,Volume (%) under,"[2]; Particles size 1.096 µm, MICRONIZATION-3, five repeated micronization procedures",59.80%
same,"Amorphous Content (%, w/w)","[3]; MICRONIZATION-1, five repeated micronization procedures","3.68 %, w/w"
same,"Amorphous Content (%, w/w)","[3]; MICRONIZATION-2, five repeated micronization procedures","6.12 %, w/w"
same,"Amorphous Content (%, w/w)","[3]; MICRONIZATION-3, five repeated micronization procedures","19.23 %, w/w"

# Source: patent EP2689855B1, “Modified micronization device and use thereof” (Oekomineral AG, priority 2012, dated 2014)
